Source: patent US9206193B2, “Substituted norindenoisoquinolines, syntheses thereof, and methods of use” (PURDUE RESEARCH FOUNDATION, priority 2010, dated 2015)
Read-outs that look alike come from different tables or passages of the source.

What was measured:
HOP-62 = assay: NCI DTP antiproliferative screen, lung HOP-62; type: cell-based, human
Protocol: (§1) The norindenoisoquinolines are examined for antiproliferative activity in the National Cancer Institute's Developmental Therapeutics Program (DTP) (Boyd & Paull, Some Practical Considerations and Applications of the National Cancer Institute In Vitro Anticancer Drug Discovery Screen. Drug Development Res. 1995, 34, 91-109; Shoemaker, The NCI60 Human Tumour Cell Line Anticancer Drug screen. Nat. Rev. Cancer 2006, 6, 813-823). Each compound is evaluated against approximately 55 human cell lines representing leukemia, melanoma, and cancers of the lung, colon, brain, breast, ovary, prostate and kidney. After an initial one-dose assay at a single high dose (10^−5 M), only compounds that satisfy the pre-determined threshold inhibition criteria are selected for further 5-dose assay.

HCT-116 = assay: NCI DTP antiproliferative screen, colon HCT-116; type: cell-based, human
Protocol: as §1

SF-539 = assay: NCI DTP antiproliferative screen, CNS SF-539; type: cell-based, human
Protocol: as §1

UACC-62 = assay: NCI DTP antiproliferative screen, melanoma UACC-62; type: cell-based, human
Protocol: as §1

OVCAR-3 = assay: NCI DTP antiproliferative screen, ovarian OVCAR-3; type: cell-based, human
Protocol: as §1

SN12C = assay: NCI DTP antiproliferative screen, renal SN12C; type: cell-based, human
Protocol: as §1

DU-145 = assay: NCI DTP antiproliferative screen, prostate DU-145; type: cell-based, human
Protocol: as §1

[1] = system: all human cancer cell lines successfully tested; assay: NCI DTP antiproliferative screen, mean graph midpoint; type: cell-based; settings: average GI50 of all cell lines tested; values outside 10^-8 to 10^-4 M taken as the limits
Protocol: as §1

SR = assay: NCI DTP antiproliferative screen, leukemia SR; type: cell-based, human
Protocol: as §1

NCI-H460 = assay: NCI DTP antiproliferative screen, non-small cell lung cancer NCI-H460; type: cell-based, human
Protocol: as §1

IGROVI = assay: NCI DTP antiproliferative screen, ovarian cancer IGROVI; type: cell-based, human
Protocol: as §1

MCF7 = assay: NCI DTP antiproliferative screen, breast cancer MCF7; type: cell-based, human
Protocol: as §1

HCC-2998 = assay: NCI DTP antiproliferative screen, colon cancer HCC-2998; type: cell-based, human
Protocol: as §1

COLO 205 = assay: NCI DTP antiproliferative screen, colon cancer COLO 205; type: cell-based, human
Protocol: as §1

CAKI-1 = assay: NCI DTP antiproliferative screen, renal cancer CAKI-1; type: cell-based, human
Protocol: as §1

ACHN = assay: NCI DTP antiproliferative screen, renal cancer ACHN; type: cell-based, human
Protocol: as §1

U251 = assay: NCI DTP antiproliferative screen, CNS cancer U251; type: cell-based, human
Protocol: as §1

SF-295 = assay: NCI DTP antiproliferative screen, CNS cancer SF-295; type: cell-based, human
Protocol: as §1

CCRF-CEM = assay: NCI DTP antiproliferative screen, leukemia CCRF-CEM; type: cell-based, human; settings: read-out: GI50 against leukemia CCRF-CEM
Protocol: as §1

RPMI-8226 = assay: NCI DTP antiproliferative screen, leukemia RPMI-8226; type: cell-based, human; settings: read-out: GI50 against leukemia RPMI-8226
Protocol: as §1

MOLT-4 = assay: NCI DTP antiproliferative screen, leukemia MOLT-4; type: cell-based, human; settings: read-out: GI50 against leukemia MOLT-4
Protocol: as §1

COc1cc2cnc3c(c2cc1OC)Cc1c-3cc2c(c1Cn1ccnc1)OCO2 [Compound 14c, 2,3-Dimethoxy-8,9-methylenedioxy-10-(1H-imidazol-yl)methyl-11H-indeno[1,2-c]isoquinoline] was tested, and the GI50 (HOP-62) was 350 nM, the GI50 (HCT-116) was 160 nM and the GI50 (SF-539) was 280 nM. For the same compound, the GI50 (UACC-62) was 210 nM, the GI50 (UACC-62; 1st run, read-out: GI50 Melanoma UACC-62) was 210 nM and the GI50 (UACC-62; 2nd run, read-out: GI50 Melanoma UACC-62) was 180 nM. It also gave a GI50 (UACC-62; Mean of runs, read-out: GI50 Melanoma UACC-62) of 200 nM, a GI50 (OVCAR-3) of 210 nM and a GI50 (SN12C) of 600 nM. For the same compound, the GI50 (DU-145) was 260 nM, the GI50 (DU-145; 1st run, read-out: GI50 Prostate Cancer DU-145) was 260 nM and the GI50 (DU-145; 2nd run, read-out: GI50 Prostate Cancer DU-145) was 410 nM. The GI50 (DU-145; Mean of runs, read-out: GI50 Prostate Cancer DU-145) was 330 nM, the “MGM (mean graph midpoint for growth inhibition)” value [1] was 0.52 µM and the GI50 (SR; 1st run, read-out: GI50 Leukemia SR) was 12 nM. For the same compound, the GI50 (SR; Mean of runs, read-out: GI50 Leukemia SR) was 12 nM, the GI50 (SR; read-out: GI50 against leukemia SR) was 12 nM and the GI50 (NCI-H460; 1st run) was 160 nM. It also gave a GI50 (NCI-H460; 2nd run) of 110 nM, a GI50 (NCI-H460; Mean of runs) of 130 nM and a GI50 (IGROVI; 1st run, read-out: GI50 Ovarian Cancer IGROVI) of 33 nM. For the same compound, the GI50 (IGROVI; 2nd run, read-out: GI50 Ovarian Cancer IGROVI) was 210 nM, the GI50 (IGROVI; Mean of runs, read-out: GI50 Ovarian Cancer IGROVI) was 120 nM and the GI50 (IGROVI; read-out: GI50 against human ovarian cancer cell IGROVI) was 121 nM. It also gave a GI50 (MCF7; 1st run, read-out: GI50 Breast Cancer MCF7) of 90 nM, a GI50 (MCF7; 2nd run, read-out: GI50 Breast Cancer MCF7) of 89 nM and a GI50 (MCF7; Mean of runs, read-out: GI50 Breast Cancer MCF7) of 90 nM. The GI50 (MCF7; read-out: GI50 against human breast cancer cell MCF-7) was 90 nM, the GI50 (HCC-2998; 1st run) was 110 nM and the GI50 (HCC-2998; 2nd run) was 2100 nM. For the same compound, the GI50 (HCC-2998; Mean of runs) was 1100 nM, the GI50 (COLO 205; 1st run) was 760 nM and the GI50 (COLO 205; 2nd run) was 280 nM. For the same compound, the GI50 (COLO 205; Mean of runs) was 510 nM, the GI50 (CAKI-1; 1st run) was 170 nM and the GI50 (CAKI-1; 2nd run) was 400 nM. The GI50 (CAKI-1; Mean of runs) was 290 nM, the GI50 (ACHN; 1st run) was 270 nM and the GI50 (ACHN; 2nd run) was 300 nM. It also gave a GI50 (ACHN; Mean of runs) of 280 nM, a GI50 (U251; 1st run) of 150 nM and a GI50 (U251; 2nd run) of 170 nM. The GI50 (U251; Mean of runs) was 160 nM, the GI50 (SF-295; 1st run) was 160 nM and the GI50 (SF-295; 2nd run) was 130 nM. It also gave a GI50 (SF-295; Mean of runs) of 150 nM, a GI50 (CCRF-CEM) of 37 nM and a GI50 (RPMI-8226) of 41 nM. The GI50 (MOLT-4) was 60 nM.
